The text below walks through data of patent US4477664A, “Novel 1-(4-piperidiniobenzyl)-2,3-dioxopiperazine derivatives or acid addition salts thereof” (Toyama Chemical Co., Ltd., priority 1979, dated 1984).

Values after ≈ are worked out from the molar mass of the structure shown.

A word on the MIC: it is the least concentration at which growth counts as inhibited. As usually defined, the LD50 is the dose at which mortality reaches 50%.

The first data set relates to Ehrlich cells. Briefly: MIC value against Ehrlich cells (microplate method). In kind it is cell-based. Particulars: 96 h, 2×10^4 cells/ml, 4 days, Giemsa staining. The text has this: (§1) a. MIC value against HeLa S3 cells and Ehrlich cells (microplate method) Number of cells: 2×10^4 cells/ml Culture medium: Eagle's MEM+20% calf embryonic serum Culture time: 4 days Judgement: Giemsa staining
Compound `O=C1C(=O)N(CC2CCCCC2)CCN1Cc1ccc(Nc2ncccn2)cc1` [Compound 11] gave an MIC of 1.56 µg/mL (≈ 3.96 µM).

In the case of `O=C1C(=O)N(c2ccccc2)CCN1Cc1ccc(Nc2ncccn2)cc1` [Compound 12], the MIC worked out at 0.78 µg/mL (≈ 2.09 µM).

For the compound `O=C1C(=O)N(Cc2ccc(Nc3ncccn3)cc2)CCN1CCCc1ccccc1` [Compound 15], it took 1.56 µg/mL (≈ 3.75 µM) to inhibit growth (MIC).

Turning to `O=C1C(=O)N(Cc2ccc(Nc3ncccn3)cc2)CCN1Cc1ccc(Cl)cc1` [Compound 16], the MIC was 1.56 µg/mL (≈ 3.7 µM).

On to `COC(=O)c1ccc(CN2CCN(Cc3ccc(Nc4ncccn4)cc3)C(=O)C2=O)cc1` [Compound 17], for which the MIC amounted to 6.25 µg/mL (≈ 14 µM).

`CC(c1ccccc1)N1CCN(Cc2ccc(Nc3ncccn3)cc2)C(=O)C1=O` (stereo not shown) [Compound 18] had an MIC of 6.25 µg/mL (≈ 15.6 µM).

`CCCCCCN1CCN(Cc2ccc(Nc3ccncn3)cc2)C(=O)C1=O` [Compound 19] had an MIC of 1.56 µg/mL (≈ 4.09 µM).

Regarding `O=C1C(=O)N(Cc2ccc(Nc3ccncn3)cc2)CCN1Cc1ccccc1` [Compound 20], the lowest concentration to inhibit growth (MIC) was 1.56 µg/mL (≈ 4.03 µM).

For `CCCCCCN1CCN(Cc2ccc(Nc3cnccn3)cc2)C(=O)C1=O` [Compound 21], 1.56 µg/mL (≈ 4.09 µM) was the least that counted as inhibitory (MIC).

In turn, `CC(c1ccc(Nc2ncccn2)cc1)N1CCN(Cc2ccccc2)C(=O)C1=O` (stereo not shown) [Compound 22] returned an MIC of 6.25 µg/mL (≈ 15.6 µM).

`O=C1C(=O)N(Cc2ccc(Nc3ccccn3)cc2)CCN1Cc1ccc(Nc2ccccn2)cc1` [Compound 24] gave an MIC of 3.13 µg/mL (≈ 6.54 µM). Against the preceding compound, the MIC is about 2-fold lower.

For the compound `Cc1ccc(Nc2ccc(CN3CCN(Cc4ccccc4)C(=O)C3=O)cc2)nc1` [Compound 25], the lowest concentration to inhibit growth (MIC) was 0.39 µg/mL (≈ 0.974 µM).

As for `CC=CC=CCN1CCN(Cc2ccc(N(CC)CC)cc2)C(=O)C1=O` [Compound 27], the MIC came out at 6.25 µg/mL (≈ 17.6 µM).

As to `CCCCCCN1CCN(Cc2ccc(N3CCCCC3)cc2)C(=O)C1=O` [Compound 31], the MIC came to 3.13 µg/mL (≈ 8.42 µM).

In turn, `CCCCCCN1CCN(Cc2ccc(NCC)cc2)C(=O)C1=O` [Compound 32] displayed a minimum inhibitory concentration (MIC) of 6.25 µg/mL (≈ 18.9 µM).

Take `CCCCCCN1CCN(Cc2ccc(NC(C)C)cc2)C(=O)C1=O` [Compound 33]: inhibition of growth (MIC) required 0.78 µg/mL (≈ 2.26 µM).

Turning to `Cc1cc(Nc2ccc(CN3CCN(Cc4ccccc4)C(=O)C3=O)cc2)ncc1N` [Compound 43], the MIC is below 0.05 µg/mL.

The compound `Cc1cc(Nc2ccc(CN3CCN(Cc4ccccc4)C(=O)C3=O)cc2)nc(C)c1N` [Compound 44] came in with an MIC of 0.78 µg/mL (≈ 1.82 µM).

As to `Nc1cnc(Nc2ccc(CN3CCN(Cc4ccccc4)C(=O)C3=O)cc2)nc1` [Compound 45], the MIC is 0.05 µg/mL (≈ 0.124 µM). This MIC is about 16-fold lower than that of the compound before.

Tested on in a further data set: not listed separately
The data set can be described thus: Acute toxicity. To be noted: mouse, in vivo, ip; intraperitoneal, once, male mice, observed for 7 days. The text has this:
The test drugs were used in the form of a solution or suspension in a saline solution or a 0.3% carboxymethyl cellulose-containing saline solution.
`O=C1C(=O)N(c2ccccc2)CCN1Cc1ccc(Nc2ncccn2)cc1` [Compound 12] yielded an LD50 at 168 h above 500 mg/kg.

With `O=C1C(=O)N(Cc2ccc(Nc3ncccn3)cc2)CCN1CCCc1ccccc1` [Compound 15], the LD50 at 168 h was above 500 mg/kg.

In turn, `CCCCCCN1CCN(Cc2ccc(Nc3ccncn3)cc2)C(=O)C1=O` [Compound 19] came in with an LD50 at 168 h above 500 mg/kg.

Compound `O=C1C(=O)N(Cc2ccc(Nc3ccncn3)cc2)CCN1Cc1ccccc1` [Compound 20] registered an LD50 at 168 h above 500 mg/kg.

`Cc1cc(Nc2ccc(CN3CCN(Cc4ccccc4)C(=O)C3=O)cc2)ncc1N` [Compound 43] had a 50% lethal dose (LD50) at 168 h above 200 mg/kg.

As to `Cc1cc(Nc2ccc(CN3CCN(Cc4ccccc4)C(=O)C3=O)cc2)nc(C)c1N` [Compound 44], the LD50 at 168 h was above 200 mg/kg.

For another data set, the system named is L-1210 ascites cells. Briefly: Effect on L-1210 leukemia (i): intraperitoneal inoculation, mean survival days. It counts as in vivo, BDF1-strain mice. Particulars: 50 mg/kg, 3 administrations. On the procedure: (i) L-1210 ascites cells (1×10^5 cells/head) were inoculated intraperitoneally into BDF1 -strain mice (female, 6 weeks old, each group consisting of 4 mice), and after 24 hours, the intraperitoneal administration of a test drug was started and effected once a day. The effect thereof was judged from the mean survival days. The test drug was used in the form of a solution or suspension in a saline solution or a 0.3% carboxymethyl cellulose-containing saline solution.
T/C was calculated in the same manner as in above b (i).
As for `Cc1cc(Nc2ccc(CN3CCN(Cc4ccccc4)C(=O)C3=O)cc2)nc(C)c1N` [Compound 44], the “T/C (mean survival days)” value is 137%.

Still in this data set, the particulars now being: 50 mg/kg, 7 administrations.
With `Cc1cc(Nc2ccc(CN3CCN(Cc4ccccc4)C(=O)C3=O)cc2)ncc1N` [Compound 43], the “T/C (mean survival days)” value amounted to 143%.

In a further data set the test system is HeLa S3 cells. The data set can be described thus: MIC value against HeLa S3 cells (microplate method). To be noted: Homo sapiens, 96 h, 2×10^4 cells/ml, 4 days, Giemsa staining. In kind it is cell-based.
Excerpt: as §1
For the compound `O=C1C(=O)N(CC2CCCCC2)CCN1Cc1ccc(Nc2ncccn2)cc1` [Compound 11], the minimal inhibitory concentration (MIC) stood at 1.56 µg/mL (≈ 3.96 µM).

In the case of `O=C1C(=O)N(c2ccccc2)CCN1Cc1ccc(Nc2ncccn2)cc1` [Compound 12], the MIC came out at 0.78 µg/mL (≈ 2.09 µM).

Turning to `O=C1C(=O)N(Cc2ccc(Nc3ncccn3)cc2)CCN1CCCc1ccccc1` [Compound 15], the MIC worked out at 1.56 µg/mL (≈ 3.75 µM).

The compound `O=C1C(=O)N(Cc2ccc(Nc3ncccn3)cc2)CCN1Cc1ccc(Cl)cc1` [Compound 16] showed an MIC of 1.56 µg/mL (≈ 3.7 µM).

Take `COC(=O)c1ccc(CN2CCN(Cc3ccc(Nc4ncccn4)cc3)C(=O)C2=O)cc1` [Compound 17]: the MIC turned out to be 6.25 µg/mL (≈ 14 µM).

Take `CC(c1ccccc1)N1CCN(Cc2ccc(Nc3ncccn3)cc2)C(=O)C1=O` (stereo not shown) [Compound 18]: 3.13 µg/mL (≈ 7.8 µM) was the least that counted as inhibitory (MIC).

As to `CCCCCCN1CCN(Cc2ccc(Nc3ccncn3)cc2)C(=O)C1=O` [Compound 19], the MIC amounted to 1.56 µg/mL (≈ 4.09 µM).

The compound `O=C1C(=O)N(Cc2ccc(Nc3ccncn3)cc2)CCN1Cc1ccccc1` [Compound 20] came in with an MIC of 0.78 µg/mL (≈ 2.01 µM).

Compound `CCCCCCN1CCN(Cc2ccc(Nc3cnccn3)cc2)C(=O)C1=O` [Compound 21] returned an MIC of 1.56 µg/mL (≈ 4.09 µM).

Compound `CC(c1ccc(Nc2ncccn2)cc1)N1CCN(Cc2ccccc2)C(=O)C1=O` (stereo not shown) [Compound 22] registered an MIC of 3.13 to 6.25 µg/mL (≈ 7.8 to 15.6 µM).

`O=C1C(=O)N(Cc2ccc(Nc3ccccn3)cc2)CCN1Cc1ccc(Nc2ccccn2)cc1` [Compound 24] returned a minimal inhibitory concentration (MIC) of 3.13 µg/mL (≈ 6.54 µM).

The compound `Cc1ccc(Nc2ccc(CN3CCN(Cc4ccccc4)C(=O)C3=O)cc2)nc1` [Compound 25] gave an MIC of 0.39 µg/mL (≈ 0.974 µM).

In turn, `CC=CC=CCN1CCN(Cc2ccc(N(CC)CC)cc2)C(=O)C1=O` [Compound 27] registered an MIC of 6.25 µg/mL (≈ 17.6 µM). Compared with the last compound, the MIC is about 16-fold higher.

`CCCCCCN1CCN(Cc2ccc(N3CCCCC3)cc2)C(=O)C1=O` [Compound 31] registered an MIC of 3.13 µg/mL (≈ 8.42 µM).

For `CCCCCCN1CCN(Cc2ccc(NCC)cc2)C(=O)C1=O` [Compound 32], it took 6.25 µg/mL (≈ 18.9 µM) to inhibit growth (MIC). This MIC is about 2-fold higher than that of the compound before.

The compound `CCCCCCN1CCN(Cc2ccc(NC(C)C)cc2)C(=O)C1=O` [Compound 33] came in with an MIC of 0.78 µg/mL (≈ 2.26 µM).

The compound `Cc1cc(Nc2ccc(CN3CCN(Cc4ccccc4)C(=O)C3=O)cc2)ncc1N` [Compound 43] had an MIC below 0.05 µg/mL.

The compound `Cc1cc(Nc2ccc(CN3CCN(Cc4ccccc4)C(=O)C3=O)cc2)nc(C)c1N` [Compound 44] returned an MIC of 0.78 µg/mL (≈ 1.82 µM).

For the compound `Nc1cnc(Nc2ccc(CN3CCN(Cc4ccccc4)C(=O)C3=O)cc2)nc1` [Compound 45], inhibition of growth (MIC) required 0.05 µg/mL (≈ 0.124 µM).
